Test results from PubChem BioAssay (NCI).
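Grown in 96-well plates, cells were treated for 48 hours with each compound at five concentrations. Insufficient inhibition: endpoint recorded as highest concentration tested. GI50: concentration for 50% inhibition of growth. TGI denotes the concentration required for complete inhibition of growth.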

Assays:
Assay in all cases: NCI tumour cell line growth inhibition, 48 h
[1] = tested on: SN12C renal
[2] = tested on: SK-MEL-2 melanoma
[3] = tested on: HS 578T breast
[4] = tested on: TK-10 renal
[5] = tested on: SNB-19 CNS
[6] = tested on: NCI-H226 lung
[7] = tested on: UACC-62 melanoma
[8] = tested on: HOP-62 NSCLC
[9] = tested on: HCT-116 colon
[10] = tested on: 786-0 renal
[11] = tested on: KM12 colon
[12] = tested on: K-562 leukemia
[13] = tested on: M14 melanoma
[14] = tested on: A498 renal
[15] = tested on: SF-268 CNS
[16] = tested on: DU-145 prostate
[17] = tested on: NCI/ADR-RES ovarian
[18] = tested on: CAKI-1 renal
[19] = tested on: CCRF-CEM leukemia
[20] = tested on: LOX IMVI melanoma
[21] = tested on: OVCAR-5 ovarian
[22] = tested on: EKVX NSCLC
[23] = tested on: MOLT-4 leukemia
[24] = tested on: BT-549 breast
[25] = tested on: COLO 205 colon
[26] = tested on: SF-295 CNS
[27] = tested on: UACC-257 melanoma
[28] = tested on: HCC-2998 colon
[29] = tested on: UO-31 renal
[30] = tested on: HOP-92 NSCLC
[31] = tested on: HCT-15 colon
[32] = tested on: OVCAR-4 ovarian
[33] = tested on: MALME-3M melanoma
[34] = tested on: MCF7 breast
[35] = tested on: NCI-H522 lung
[36] = tested on: OVCAR-8 ovarian
[37] = tested on: RPMI-8226 leukemia
[38] = tested on: A549 NSCLC
[39] = tested on: SK-MEL-5 melanoma
[40] = tested on: NCI-H460 lung
[41] = tested on: MDA-MB-435
[42] = tested on: OVCAR-3 ovarian
[43] = tested on: MDA-MB-231 breast
[44] = tested on: SR leukemia
[45] = tested on: ACHN renal
[46] = tested on: SF-539 CNS
[47] = tested on: IGROV1 ovarian
[48] = tested on: PC-3 prostate
[49] = tested on: SK-OV-3 ovarian
[50] = tested on: NCI-H23 lung
[51] = tested on: U251 CNS
[52] = tested on: RXF 393 renal
[53] = tested on: SW-620 colon
[54] = tested on: T-47D breast
[55] = tested on: HL-60(TB) leukemia
[56] = tested on: SK-MEL-28 melanoma
[57] = tested on: HT29 colon
[58] = tested on: SNB-75 CNS

Compound: O=C(Cc1cc(O)ccc1O)NO
- GI50 [1]: 18.2 µM
- TGI [1]: 33.8 µM
- GI50 [2]: > 100 µM
- TGI [2]: > 100 µM
- GI50 [3]: > 100 µM
- TGI [3]: > 100 µM
- GI50 [4]: 57.6 µM
- TGI [4]: > 100 µM
- GI50 [5]: 31.2 µM
- TGI [5]: > 100 µM
- GI50 [6]: 70 µM
- TGI [6]: > 100 µM
- GI50 [7]: 24.7 µM
- TGI [7]: 63.3 µM
- GI50 [8]: > 100 µM
- TGI [8]: > 100 µM
- GI50 [9]: 18 µM
- TGI [9]: 32.4 µM
- GI50 [10]: 18.9 µM
- TGI [10]: 34.5 µM
- GI50 [11]: > 100 µM
- TGI [11]: > 100 µM
- GI50 [12]: 21.2 µM
- TGI [12]: 45.8 µM
- GI50 [13]: > 100 µM
- TGI [13]: > 100 µM
- GI50 [14]: > 100 µM
- TGI [14]: > 100 µM
- GI50 [15]: > 100 µM
- TGI [15]: > 100 µM
- GI50 [16]: > 100 µM
- TGI [16]: > 100 µM
- GI50 [17]: > 100 µM
- TGI [17]: > 100 µM
- GI50 [18]: 26.9 µM
- TGI [18]: 81.9 µM
- GI50 [19]: 22.3 µM
- TGI [19]: 48.6 µM
- GI50 [20]: 28.5 µM
- TGI [20]: 80.9 µM
- GI50 [21]: 18.7 µM
- TGI [21]: 34.1 µM
- GI50 [22]: > 100 µM
- TGI [22]: > 100 µM
- GI50 [23]: 19.7 µM
- TGI [23]: 41 µM
- GI50 [24]: 85.7 µM
- TGI [24]: > 100 µM
- GI50 [25]: 18.6 µM
- TGI [25]: 36.3 µM
- GI50 [26]: 21.7 µM
- TGI [26]: 47.9 µM
- GI50 [27]: 59.9 µM
- TGI [27]: > 100 µM
- GI50 [28]: > 100 µM
- TGI [28]: > 100 µM
- GI50 [29]: > 100 µM
- TGI [29]: > 100 µM
- GI50 [30]: 21.3 µM
- TGI [30]: 59.6 µM
- GI50 [31]: 74.6 µM
- TGI [31]: > 100 µM
- GI50 [32]: > 100 µM
- TGI [32]: > 100 µM
- GI50 [33]: 29.1 µM
- TGI [33]: > 100 µM
- GI50 [34]: 16.5 µM
- TGI [34]: 34.9 µM
- GI50 [35]: 91.7 µM
- TGI [35]: > 100 µM
- GI50 [36]: > 100 µM
- TGI [36]: > 100 µM
- GI50 [37]: 19 µM
- TGI [37]: 40 µM
- GI50 [38]: 89.4 µM
- TGI [38]: > 100 µM
- GI50 [39]: > 100 µM
- TGI [39]: > 100 µM
- GI50 [40]: 89.8 µM
- TGI [40]: > 100 µM
- GI50 [41]: 15.4 µM
- TGI [41]: 31.2 µM
- GI50 [42]: 16.9 µM
- TGI [42]: 33.3 µM
- GI50 [43]: 19.9 µM
- TGI [43]: 47 µM
- GI50 [44]: 20.5 µM
- TGI [44]: 52.6 µM
- GI50 [45]: > 100 µM
- TGI [45]: > 100 µM
- GI50 [46]: > 100 µM
- TGI [46]: > 100 µM
- GI50 [47]: > 100 µM
- TGI [47]: > 100 µM
- GI50 [48]: > 100 µM
- TGI [48]: > 100 µM
- GI50 [49]: > 100 µM
- TGI [49]: > 100 µM
- GI50 [50]: > 100 µM
- TGI [50]: > 100 µM
- GI50 [51]: 32.7 µM
- TGI [51]: > 100 µM
- GI50 [52]: 71.7 µM
- TGI [52]: > 100 µM
- GI50 [53]: 25.1 µM
- TGI [53]: 54.1 µM

Compound: COc1ccc(-c2cc(=O)c3c(OC)c4ccoc4c(/C=C/C=O)c3o2)cc1
- GI50 [1]: 2.32 µM
- TGI [1]: 59.5 µM
- GI50 [54]: 2.03 µM
- TGI [54]: > 100 µM
- GI50 [2]: 9.06 µM
- TGI [2]: 84.6 µM
- GI50 [3]: 10.4 µM
- TGI [3]: > 100 µM
- GI50 [5]: 3.16 µM
- TGI [5]: 46.6 µM
- GI50 [6]: 2.93 µM
- TGI [6]: 8.89 µM
- GI50 [7]: 1.77 µM
- TGI [7]: 5.11 µM
- GI50 [8]: 2.98 µM
- TGI [8]: 11.1 µM
- GI50 [9]: 1.06 µM
- TGI [9]: 3.43 µM
- GI50 [10]: 16.8 µM
- TGI [10]: 72.5 µM
- GI50 [11]: 12.3 µM
- TGI [11]: 25.7 µM
- GI50 [12]: 2.8 µM
- TGI [12]: > 100 µM
- GI50 [13]: 2.24 µM
- TGI [13]: 7.56 µM
- GI50 [14]: 17.2 µM
- TGI [14]: 71.9 µM
- GI50 [15]: 4.38 µM
- TGI [15]: 87.2 µM
- GI50 [16]: 4.53 µM
- TGI [16]: 18.9 µM
- GI50 [17]: 2.84 µM
- TGI [17]: 48 µM
- GI50 [18]: 5.03 µM
- TGI [18]: > 100 µM
- GI50 [19]: 1.09 µM
- TGI [19]: > 100 µM
- GI50 [20]: 1.08 µM
- TGI [20]: 2.34 µM
- GI50 [21]: 11.7 µM
- TGI [21]: 46.8 µM
- GI50 [55]: 2.72 µM
- TGI [55]: 8.33 µM
- GI50 [56]: 2.52 µM
- TGI [56]: 7.1 µM
- GI50 [23]: 1.84 µM
- TGI [23]: 5.97 µM
- GI50 [24]: 2.14 µM
- TGI [24]: 7.15 µM
- GI50 [25]: 27.5 µM
- TGI [25]: 80.4 µM
- GI50 [26]: 3.4 µM
- TGI [26]: 26.5 µM
- GI50 [27]: 3.63 µM
- TGI [27]: 14.2 µM
- GI50 [28]: 13.7 µM
- TGI [28]: 27.8 µM
- GI50 [29]: 3.17 µM
- TGI [29]: 19.5 µM
- GI50 [30]: 16.8 µM
- TGI [30]: 98.7 µM
- GI50 [31]: 1.73 µM
- TGI [31]: 5.92 µM
- GI50 [32]: 3.8 µM
- TGI [32]: > 100 µM
- GI50 [57]: 18.1 µM
- TGI [57]: > 100 µM
- GI50 [33]: 3.79 µM
- TGI [33]: 8.3 µM
- GI50 [34]: 1.63 µM
- TGI [34]: > 100 µM
- GI50 [35]: 34.6 µM
- TGI [35]: > 100 µM
- GI50 [58]: 3.13 µM
- TGI [58]: 20.6 µM
- GI50 [36]: 2.83 µM
- TGI [36]: 27.3 µM
- GI50 [37]: 1.37 µM
- TGI [37]: 5.29 µM
- GI50 [38]: 18.5 µM
- TGI [38]: 72.4 µM
- GI50 [39]: 1.69 µM
- TGI [39]: 3.51 µM
- GI50 [40]: 4.7 µM
- TGI [40]: 39.4 µM
- GI50 [41]: 2.81 µM
- TGI [41]: 32.3 µM
- GI50 [42]: 3.92 µM
- TGI [42]: 25.3 µM
- GI50 [43]: 4.22 µM
- TGI [43]: 85.3 µM
- GI50 [45]: 19.3 µM
- TGI [45]: > 100 µM
- GI50 [46]: 4.14 µM
- TGI [46]: 19.6 µM
- GI50 [47]: 13.6 µM
- TGI [47]: > 100 µM
- GI50 [48]: 2.58 µM
- TGI [48]: 16.5 µM
- GI50 [49]: 4.73 µM
- TGI [49]: 23 µM
- GI50 [50]: 2.8 µM
- TGI [50]: 13 µM
- GI50 [51]: 2.53 µM
- TGI [51]: 10.3 µM
- GI50 [52]: 2.15 µM
- TGI [52]: 4.49 µM
- GI50 [53]: 2.3 µM
- TGI [53]: 10.4 µM
